These results are taken from US7071206B2, “Agents for treating neurodegenerative disorders” (Medivation, Inc., priority 1995, dated 2006).

Series [1] concerns patients suffering from Alzheimer's disease. As to the kind of experiment: Clinical trial of dimebon: blood and urea analysis. It counts as in vivo, human. The text has this:
By the 8th week of the treatment the amount of leukocytes was normal again.

The test system is the same in series [2]. The following applies: general statement on the agent used in medicine as antiallergic; cited from earlier work.
Series [3] shares this test system. In words: Clinical trial of dimebon: clinical observations of the mental state. It counts as in vivo, human. The protocol:
(§1) The test was carried out under the direct supervision by two of the inventors, namely E. E. Bukatina and V. Grigorieva, in 14 patients who agreed to take part in the tests, 13 of whom lived in a boarding house for senile persons and one patient lived with their family.
(§2) Dimebon in the form of tablets (comprising 10 mg of dimebon, 30 mg of lactose, 5 mg of magnesium stearate was prescribed for oral administration in a dose of 0.02 g three to times a day. The patients living in the boarding house received dimebon for 58 days. A patient (observation 14) who was under outpatient observation continued taking the agent for a month after the completion of the tests.
The test results reflected the condition of the patients at the time of the examination. Any changes in the metal state observed in the interval between the tests and disappearing by the moment of examination according to the scale were described in the section “Clinical Observations”.
The pattern of the dynamics of the mental states of the patients during the treatment with dimebon registered in clinical observations is presented in Table 17.

The subject of the next series is NMDA receptor. In words: Anti-NMDA activity: prevention of convulsions and death caused by NMDA injected into the lateral ventricle of the brain. The series is classed as in vivo. To be noted: mice; i.p. 40 minutes before NMDA 0.1 μg into the lateral ventricle; probit analysis. The protocol:
The experiment was conducted in white non-inbred male mice of 20–24 g of weight. A solution of the test agent in 0.2 ml of 5% aqueous dimethylsulfoxide was injected intraperitoneally 40 minutes before the injection of NMDA into the lateral vehicle of the brain. For the mice that had been prepared beforehand for the experiment a skin flap on the head of each mouse was removed under ether anestesia and a hole was bored in the skull by a fine drill. NMDA (0.1 μg) in a volume of 1.4 μl was injected with a microsyringe. The microsyringe needle was immersed to a depth of 2.5 mm. After the operation, the wound was treated with a 2% novocaine solution. […] The accuracy of NMDA injection was monitored by injection of methylene blue. Two to 4 hours after the operation, the mice were used for a pharmacological experiment.
The animals inoculated with a saline solution were used as control.
Each dose of the agent was tested in a croup of 6–8 animals. The ED50 value (the dose of the agent preventing the development of convulsions and the death of 50% of the animals) was determined by a probit-analysis method (Litchfild J. T., Wicoxon F. J.—Pharmacol. Exp. Therap., 1949, v. 96, p. 99–114).

Series [4] concerns patients suffering from Alzheimer's disease. In words: Clinical trial of dimebon: EEG investigations. The series is classed as in vivo, human. To be noted: any patients except one (observation 12: increase of focal Δ-waves, retardation of the rhythm). The text has this: In observations 2, 11 and 14 the weakly positive dynamics of the EEG was manifested in weaker outbursts during hyperventilation and normalization of the zonal differences.

For series [5] the test system is unchanged. As to the kind of experiment: Clinical trial of dimebon tablets, Hazegawa's scale (0 score = poorest result). It counts as in vivo, human. The protocol:
as §1
Alzheimer's disease was diagnosed on the basis of criteria ICD-10 NINCDS ADRDA.
as §2
Before the treatment with dimebon, and at 4 and 8 weeks after treatment the patients were examined according to Hazegawa's scale and the inventors' scale (“Social and Clinical Psychiatry”, 1992, No.4, pp.29–37) which includes the following indexes: (1) orientation in locality, time, immediate surroundings and one's own personality; (2) orientation in space; (3) memory for the past; (4) memory for the present; (5) “life in the past”; (6) (a) articulation, (b) difficulty in finding words, and distortion of words; (c) naming of objects; (d) following instructions; (7) concentration (of attention); (8) an affective sphere; (a) high spirits, (b) low spirits; (9) delirium; (10) hearing hallucinations; (11) visual hallucinations; (12) senile or senile-like confusion (when motion anxiety is accompanied by the revival of the past experience); (13) irritability; (14) anxiety; (15) asthenia; (16) headaches; (17) dizziness; (18) tearfulness; (19) spontaneous activity; (20) elementary self-service; and (21 control of sphincters.
According to the Hazegawa's scale, the 0 score indicates the poorest result; on the contrary, according to the inventors' scale, the 0 score indicates the absence of a symptom 4 score indicates the greatest manifestation thereof. […] Before the therapy was started, the patients had been independently examined by two doctors who used the inventors' scale. The examination during the treatment was carried out by the doctors using both the scales. The evaluation according to all the inventors' scale points during all the tests and their variations during the treatment with dimebon are given in the Appendix.
Both absolute evaluations of the signs under investigation (the evaluation prior to treatment is a mean evaluation of the two examinations) and variations in them were analysed in the course of therapy. In doing so, only those changes that were beyond the range of evaluations obtained in two pre-treatment examinations were taken into consideration. […]

Turning to `Cc1ccc2c(c1)c1c(n2CCc2ccc(C)nc2)CCN(C)C1` [No. 10, 2,8-dimethyl-5-[2-(6-methyl-3-pyridyl)ethyl]-2,3,4,5-tetrahydro-1H-pyrido[4,3-b]indole], the amount of leukocytes result in series [1] (after 4 weeks, within normal limits, p<0.05) was “significant reduction”. Also, the amount of leukocytes result in series [1] (by the 8th week) was “normal again”. In series [1] (during the course of the treatment), the “hematological and biochemical status” value is “No pathologic changes”. Moreover, in series [2], the “toxicity and negative side-effects” value was “non-toxic and does not show any negative side-effects”. Further, in series [3] (14 patients), the “number of patients who became more active (cheerfulness and freshness)” value is listed as 4 patients; the “number of patients who complained of headaches much less frequently” value is reported as 4 patients; the “number of patients who slept better” value came to 2 patients; the “number of patients with a distinct antidepressive effect” value worked out at 8 patients. In series [3] (14 patients), the “number of patients with a greater interest in what was happening around” value came to 8 patients; the “psychopatic-like and depressive manifestations, conclusion” value is recorded as “definite positive effect”. For the same compound, in series [3] (all 7 patients who suffered from them, during the first 2 weeks of therapy), the “psychopathic-like symptoms (lack of restraint, touchiness, conflict making, evil-mindedness or aggressiveness)” value is on record as “decreased significantly”. Besides, in the series on NMDA receptor, the “ED50 (dose preventing the development of convulsions and the death of 50% of the animals)” value came to 42 ± 6 mg/kg. For the same compound, in series [4], the “changes in the EEG during the course of treatment” value is recorded as “No changes in the EEG”. Besides, in series [5] (mean of 7 patients with nonprofound dementia, after 4 weeks), the “Evaluation according to Hazegawa's scale, M +/− m” value (“Evaluation according” for short) was 20.79 +/− 1.85. Also, the “Evaluation according” value in series [5] (mean of 7 patients with nonprofound dementia, after 8 weeks) was 23 +/− 1.17. Further, the “Evaluation according” value in series [5] (mean of 14 patients, after 4 weeks) is listed as 14.68 +/− 1.87. The “Evaluation according” value in series [5] (mean of 14 patients, after 8 weeks) was 15.68 +/− 2.39.
